Source: patent US20220296566A1, “COMBINATION PRODUCT CONTAINING LIMONOID COMPOUND AND ALPHA-GLUCOSIDASE INHIBITOR” (ZHEJIANG YANGSHENGTANG INSTITUTE OF NATURAL MEDICATION CO., …, priority 2019, published 2022)

Assays:
db/db mice = assay: Serum insulin by Elisa in db/db mice (Example 4); format: in vivo; details: single agent 0.2 g/kg per day by gavage, two weeks, mean ± SD
From the text: Effects of limonoid compound, acarbose or combination thereof on blood glucose and insulin in mouse type II diabetes model
In the present embodiment, the limonoid compound was selected from nomilin, deacetylnomilin, nomilin acid, deacetylnomilin acid glycoside, and acarbose single administration group, nomilin single administration group, deacetylnomilin single administration group, nomilin acid single administered group, deacetylnomilin acid glycoside single administration group, and respective combination thereof with acarbose administration groups were set.
Conditions for experimental feeding: as type II diabetes model mice, 6-week-old SPF-grade db/db mice were purchased from the Nanjing Model Biology Institute, and subjected to experimental feeding after 7 days of preliminary feeding. It should be noted that the conditions for raising the mice were as follows: the temperature was 23±1° C., the humidity was 55±10%, the lights were turned on between 7 am and 7 pm (the lights were turned off at other time), and the mice were allowed to freely take in water and feed. The experimental feed was mouse growth-stable feed (GB M2118), and the daily feeding and management of the animals were under the responsibility of the animal security department, which provided the animals with sufficient diet and fresh drinking water daily. […]

STZ mice = assay: Blood glucose in STZ mouse pancreatic islet β-cell injury model (Example 3); format: in vivo; details: STZ ICR mice; single agent 0.1 g/kg per day by gavage, two weeks; 1 h after last administration; mean ± SD
From the text: Effects of limonoid compound, acarbose or combination thereof on blood glucose in mouse pancreatic islet (β-cell injury model In this example, a mouse pancreatic islet (β-cell injury model was established by modeling ICR mice with streptozotocin (STZ) (Li Nan et al., Protective effect of pine pollen on kidney damage in diabetic nephropathy mice, Science and Technology Review, 2014, 32 (4/5): 95-99), and used to complete the evaluation of hypoglycemic effect in animals (this model could simulate pancreatic islet (β-cell damage state of type I and type II diabetics). The limonoid compound was selected from the group consisting of […], and […] glycoside, and acarbose single administration group, […] single administration group, […] single administration group, […] glycoside singe administration group, and respective combination thereof with acarbose administration groups were set. Conditions of experimental feeding: ICR mice (20±2 g), aged 6 weeks, purchased from Zhejiang Academy of Medical Sciences, and subjected to experimental feeding after 7 days of preliminary feeding. […] The data were expressed as mean and standard deviation. The data before and after were analyzed by t-test, and P<0.05 was considered statistically significant.

`C[C@H]1O[C@H](O[C@H]2[C@H](O)[C@@H](O)[C@@H](O[C@H]3[C@H](O)[C@@H](O)C(O)O[C@@H]3CO)O[C@@H]2CO)[C@H](O)[C@@H](O)[C@@H]1N[C@H]1C=C(CO)[C@@H](O)[C@H](O)[C@H]1O` (some centres unmarked) [Acarbose, acarbose] showed an Insulin (db/db mice) of 8.45 ± 2.21 pg/mL and a Blood glucose value (STZ mice) of 20.6 ± 4.5 mmol/L.
